Reference: PubChem BioAssay (NCI)
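1) Cells in 96-well plates. 2) Compound, 48 h, 5 concentrations. 3) Linear interpolation between surrounding doses. 4) Unreached endpoint = highest concentration. TGI is the concentration that stops growth completely.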

Experiments:
Experiment in all cases: inhibition of tumour cell growth, NCI panel, 48 h
NCI-H522 lung = system: NCI-H522 lung
HCT-116 colon = system: HCT-116 colon
HOP-62 NSCLC = system: HOP-62 NSCLC
SK-MEL-5 melanoma = system: SK-MEL-5 melanoma
NCI-H460 lung = system: NCI-H460 lung
SF-295 CNS = system: SF-295 CNS
LOX IMVI melanoma = system: LOX IMVI melanoma
MALME-3M melanoma = system: MALME-3M melanoma
SF-268 CNS = system: SF-268 CNS
MOLT-4 leukemia = system: MOLT-4 leukemia
ACHN renal = system: ACHN renal
BT-549 breast = system: BT-549 breast
A498 renal = system: A498 renal
T-47D breast = system: T-47D breast
DU-145 prostate = system: DU-145 prostate
MDA-MB-231 breast = system: MDA-MB-231 breast
KM12 colon = system: KM12 colon
UACC-257 melanoma = system: UACC-257 melanoma
MDA-N = system: MDA-N
U251 CNS = system: U251 CNS
M14 melanoma = system: M14 melanoma
MDA-MB-435 = system: MDA-MB-435
A549 NSCLC = system: A549 NSCLC
NCI-H226 lung = system: NCI-H226 lung
PC-3 prostate = system: PC-3 prostate
OVCAR-8 ovarian = system: OVCAR-8 ovarian
RPMI-8226 leukemia = system: RPMI-8226 leukemia
SK-MEL-28 melanoma = system: SK-MEL-28 melanoma
SF-539 CNS = system: SF-539 CNS
RXF 393 renal = system: RXF 393 renal
TK-10 renal = system: TK-10 renal
HL-60(TB) leukemia = system: HL-60(TB) leukemia
UACC-62 melanoma = system: UACC-62 melanoma
SNB-75 CNS = system: SNB-75 CNS
HCT-15 colon = system: HCT-15 colon
OVCAR-5 ovarian = system: OVCAR-5 ovarian
NCI/ADR-RES ovarian = system: NCI/ADR-RES ovarian
MCF7 breast = system: MCF7 breast
NCI-H23 lung = system: NCI-H23 lung
HCC-2998 colon = system: HCC-2998 colon
SR leukemia = system: SR leukemia
786-0 renal = system: 786-0 renal
OVCAR-3 ovarian = system: OVCAR-3 ovarian
HS 578T breast = system: HS 578T breast
COLO 205 colon = system: COLO 205 colon
SK-OV-3 ovarian = system: SK-OV-3 ovarian
OVCAR-4 ovarian = system: OVCAR-4 ovarian
CAKI-1 renal = system: CAKI-1 renal
EKVX NSCLC = system: EKVX NSCLC
UO-31 renal = system: UO-31 renal
SN12C renal = system: SN12C renal
IGROV1 ovarian = system: IGROV1 ovarian
SNB-19 CNS = system: SNB-19 CNS
HOP-92 NSCLC = system: HOP-92 NSCLC
HT29 colon = system: HT29 colon
SK-MEL-2 melanoma = system: SK-MEL-2 melanoma
SW-620 colon = system: SW-620 colon
K-562 leukemia = system: K-562 leukemia
CCRF-CEM leukemia = system: CCRF-CEM leukemia

COC(=O)C(Cc1ccccc1)NP(=O)(O)OCC1OC(n2cc(F)c(=O)[nH]c2=O)CC1O (configuration not stated)
TGI (NCI-H522 lung): > 100 µM
TGI (HCT-116 colon): > 100 µM
TGI (HOP-62 NSCLC): > 100 µM
TGI (SK-MEL-5 melanoma): > 100 µM
TGI (NCI-H460 lung): > 100 µM
TGI (SF-295 CNS): > 100 µM
TGI (LOX IMVI melanoma): > 100 µM
TGI (MALME-3M melanoma): > 100 µM
TGI (SF-268 CNS): > 100 µM
TGI (MOLT-4 leukemia): > 93.9 µM
TGI (ACHN renal): > 100 µM
TGI (BT-549 breast): > 100 µM
TGI (A498 renal): > 100 µM
TGI (T-47D breast): > 100 µM
TGI (DU-145 prostate): > 100 µM
TGI (MDA-MB-231 breast): > 100 µM
TGI (KM12 colon): > 100 µM
TGI (UACC-257 melanoma): > 100 µM
TGI (MDA-N): > 100 µM
TGI (U251 CNS): > 100 µM
TGI (M14 melanoma): > 100 µM
TGI (MDA-MB-435): > 100 µM
TGI (A549 NSCLC): > 100 µM
TGI (NCI-H226 lung): > 100 µM
TGI (PC-3 prostate): > 100 µM
TGI (OVCAR-8 ovarian): > 100 µM
TGI (RPMI-8226 leukemia): > 100 µM
TGI (SK-MEL-28 melanoma): > 100 µM
TGI (SF-539 CNS): 63.9 µM
TGI (RXF 393 renal): > 100 µM
TGI (TK-10 renal): > 100 µM
TGI (HL-60(TB) leukemia): > 100 µM
TGI (UACC-62 melanoma): > 100 µM
TGI (SNB-75 CNS): > 100 µM
TGI (HCT-15 colon): > 100 µM
TGI (OVCAR-5 ovarian): > 100 µM
TGI (NCI/ADR-RES ovarian): > 100 µM
TGI (MCF7 breast): > 100 µM
TGI (NCI-H23 lung): > 100 µM
TGI (HCC-2998 colon): > 100 µM
TGI (SR leukemia): > 56.5 µM
TGI (786-0 renal): > 100 µM
TGI (OVCAR-3 ovarian): > 100 µM
TGI (HS 578T breast): > 100 µM
TGI (COLO 205 colon): > 100 µM
TGI (SK-OV-3 ovarian): > 100 µM
TGI (OVCAR-4 ovarian): > 100 µM
TGI (CAKI-1 renal): > 100 µM
TGI (EKVX NSCLC): > 100 µM
TGI (UO-31 renal): > 100 µM
TGI (SN12C renal): > 100 µM
TGI (IGROV1 ovarian): > 100 µM
TGI (SNB-19 CNS): > 100 µM
TGI (HOP-92 NSCLC): > 55.2 µM
TGI (HT29 colon): > 100 µM
TGI (SK-MEL-2 melanoma): > 100 µM
TGI (SW-620 colon): > 100 µM
TGI (K-562 leukemia): > 100 µM

O=C(O)c1nc(-c2ccccc2)[nH]c1C(=O)O
TGI (NCI-H522 lung): 32 µM
TGI (HCT-116 colon): 16 µM
TGI (HOP-62 NSCLC): 32.6 µM
TGI (SK-MEL-5 melanoma): 28.6 µM
TGI (NCI-H460 lung): 29.2 µM
TGI (SF-295 CNS): 30.9 µM
TGI (LOX IMVI melanoma): 9.47 µM
TGI (MALME-3M melanoma): 30.6 µM
TGI (SF-268 CNS): 34.8 µM
TGI (MOLT-4 leukemia): 9.64 µM
TGI (ACHN renal): 30.7 µM
TGI (BT-549 breast): 35.9 µM
TGI (A498 renal): 29.1 µM
TGI (T-47D breast): 33.1 µM
TGI (DU-145 prostate): 28.2 µM
TGI (MDA-MB-231 breast): 11.3 µM
TGI (KM12 colon): 14.6 µM
TGI (UACC-257 melanoma): 30.3 µM
TGI (MDA-N): 24.4 µM
TGI (U251 CNS): 8.33 µM
TGI (M14 melanoma): 25.2 µM
TGI (MDA-MB-435): 21.3 µM
TGI (A549 NSCLC): 29.3 µM
TGI (NCI-H226 lung): 33.1 µM
TGI (PC-3 prostate): 11.6 µM
TGI (OVCAR-8 ovarian): 29.7 µM
TGI (RPMI-8226 leukemia): 4.14 µM
TGI (SK-MEL-28 melanoma): 30.2 µM
TGI (SF-539 CNS): 22.7 µM
TGI (RXF 393 renal): 26.5 µM
TGI (TK-10 renal): 28.8 µM
TGI (HL-60(TB) leukemia): 0.49 µM
TGI (CCRF-CEM leukemia): 3.04 µM
TGI (UACC-62 melanoma): 32.4 µM
TGI (SNB-75 CNS): 33.6 µM
TGI (HCT-15 colon): 38.8 µM
TGI (OVCAR-5 ovarian): 31.7 µM
TGI (NCI/ADR-RES ovarian): > 82.8 µM
TGI (MCF7 breast): 15.7 µM
TGI (NCI-H23 lung): 31.8 µM
TGI (HCC-2998 colon): 12.8 µM
TGI (SR leukemia): 2.36 µM
TGI (786-0 renal): 22.5 µM
TGI (OVCAR-3 ovarian): 26.4 µM
TGI (HS 578T breast): > 61.2 µM
TGI (COLO 205 colon): 31.7 µM
TGI (SK-OV-3 ovarian): 32.4 µM
TGI (OVCAR-4 ovarian): 32.1 µM
TGI (CAKI-1 renal): 27.5 µM
TGI (EKVX NSCLC): 33 µM
TGI (UO-31 renal): 24.8 µM
TGI (SN12C renal): 26.6 µM
TGI (IGROV1 ovarian): 28.2 µM
TGI (SNB-19 CNS): 25.1 µM
TGI (HOP-92 NSCLC): 32.4 µM
TGI (HT29 colon): 20.2 µM
TGI (SK-MEL-2 melanoma): 21.3 µM
TGI (SW-620 colon): 6.78 µM
TGI (K-562 leukemia): 15.3 µM
